Laboratory results from patent US6872729B2, “Pyrimidinylbenzimidazole and triazinylbenzimidazole derivatives and agricultural/horticultural fungicides” (Kumiai Chemical Industry Co., Ltd., priority 1998, dated 2005).

Test system: Erysiphe graminis
Experiment: Test for preventive effect on wheat powdery mildew
Assay type: in vivo
Settings: wheat (Norin-61-go) seedlings, 500 ppm active ingredient, preventive treatment; diseased area of first leaves 10 days after inoculation with Erysiphe graminis
Protocol: Test for Preventive Effect on Wheat Powdery Mildew 9 Wheat seeds (variety: Norin-61-go) were sown in each 9 cm×9 cm polyvinyl chloride pot, grown in a greenhouse for 8 days, then treated with 10 ml per pot of aqueous solutions of wettable powders prepared in accordance with Formulation Example 2, at a concentration of 500 ppm in terms of the active ingredients and dried in the air. Then, the seedlings were inoculated with Erysiphe graminis spores by sprinkle over the plant and placed in a greenhouse of from 20 to 25° C. 10 days after the inoculation, the total diseases area of the first leaves in each pot was observed and evaluated on the basis of the standards shown in Table 67. [table]

| SMILES | Biological effectiveness |
| --- | --- |
| COc1nc(OC)nc(-n2c(C(F)(F)F)nc3cc(C(C)C)ccc32)n1 [Compound I-315] | B (Diseased area of less than 25%) |
| COc1nc(OC)nc(-n2c(C)nc3ccc(C)cc32)n1 [Compound I-242] | A (No diseased area) |
| CCOCc1nc2ccccc2n1-c1nc(OC)cc(OC)n1 [Compound I-22] | A (No diseased area) |
| CCOc1cc(OCC)nc(-n2c(C)nc3cc(Cl)ccc32)n1 [Compound I-499] | A (No diseased area) |
| CCOc1ccnc(-n2c(C(F)(F)F)nc3cc(C)ccc32)n1 [Compound I-705] | A (No diseased area) |
| CCCc1nc(OC)nc(-n2c(C)nc3cc(C)ccc32)n1 [Compound I-999] | A (No diseased area) |
| CCOc1cc(OCC)nc(-n2cnc3ccccc32)n1 [Compound I-457] | B (Diseased area of less than 25%) |
| COc1nc(OC)nc(-n2cnc3cc(Cl)ccc32)n1 [Compound I-130] | A (No diseased area) |
| CSc1nc(C)nc(-n2c(C)nc3cc(C)ccc32)n1 [Compound I-915] | A (No diseased area) |
| Cc1ccc2c(c1)nc(C)n2-c1nc(C)cc(C2CC2)n1 [Compound I-1103] | B (Diseased area of less than 25%) |
| CCOc1cc(OCC)nc(-n2cnc3cc(Cl)ccc32)n1 [Compound I-480] | A (No diseased area) |
| Cc1cc(C2CC2)nc(-n2c(C)nc3cc(Cl)ccc32)n1 [Compound I-1104] | B (Diseased area of less than 25%) |
| COc1nc(OC)nc(-n2c(C(Cl)(Cl)Cl)nc3cc(Cl)ccc32)n1 [Compound I-405] | A (No diseased area) |
| CCOc1cc(OCC)nc(-n2c(CC)nc3ccccc32)n1 [Compound I-462] | B (Diseased area of less than 25%) |
| CCOc1cc(OCC)nc(-n2cnc3cc(C(F)(F)F)ccc32)n1 [Compound I-483] | A (No diseased area) |
| COc1cc(OC)nc(-n2c(C(F)(F)F)nc3cc(F)ccc32)n1 [Compound I-295] | A (No diseased area) |
| COc1nc(OC)nc(-n2c(C)nc3cc(C(C)(C)C)ccc32)n1 [Compound I-222] | B (Diseased area of less than 25%) |
| COc1cc(OC)nc(-n2cnc3cc(Br)ccc32)n1 [Compound I-84] | A (No diseased area) |
| CC(C)Oc1nc(OC(C)C)nc(-n2c(C(F)(F)F)nc3cc(Cl)ccc32)n1 [Compound I-595] | B (Diseased area of less than 25%) |
| COc1nc(OC)nc(-n2c(C)nc3cc(C(=O)c4ccccc4)ccc32)n1 [Compound I-235] | A (No diseased area) |
| COc1nc(OC)nc(-n2c(Cl)nc3cc(C)ccc32)n1 [Compound I-279] | A (No diseased area) |
| COc1cc(OC)nc(-n2c(C(F)(F)C(F)(F)F)nc3ccccc32)n1 [Compound I-27] | B (Diseased area of less than 25%) |
| COc1nc(OC)nc(-n2c(C)nc3c(C)cc(C)cc32)n1 [Compound I-250] | B (Diseased area of less than 25%) |
| COc1cc(OC)nc(-n2c(C)nc3cc(Br)ccc32)n1 [Compound I-185] | A (No diseased area) |

| SMILES | Biological effectiveness |
| --- | --- |
| COc1cc(OC)nc(-n2c(SC)nc3cc(C)ccc32)n1 [Compound I-389] | B (Diseased area of less than 25%) |
| COc1cc(OC)nc(-n2c(C)nc3ccc(C(F)(F)F)cc32)n1 [Compound I-203] | B (Diseased area of less than 25%) |
| CCOc1nc(OCC)nc(-n2c(C)nc3cc(Cl)ccc32)n1 [Compound I-514] | A (No diseased area) |
| CCOc1cc(OCC)nc(-n2c(Cl)nc3cc(C)ccc32)n1 [Compound I-530] | A (No diseased area) |
| CCOc1ccc2c(c1)nc(C(F)(F)F)n2-c1nc(OC)cc(OC)n1 [Compound I-301] | A (No diseased area) |
| CCCc1cc(OC)nc(-n2c(C)nc3cc(C)ccc32)n1 [Compound I-965] | A (No diseased area) |
| CCCc1cc(OC)nc(-n2c(C)nc3ccccc32)n1 [Compound I-959] | A (No diseased area) |
| Cc1cc(C2CC2)nc(-n2c(C)nc3ccc(Cl)cc32)n1 [Compound I-1106] | B (Diseased area of less than 25%) |
| COc1cc(OC)nc(-n2c(Cl)nc3ccc(Cl)cc32)n1 [Compound I-271] | A (No diseased area) |
| COc1nc(OC)nc(-n2c(C3CC3)nc3cc(Cl)ccc32)n1 [Compound I-360] | B (Diseased area of less than 25%) |
| COc1nc(OC)nc(-n2cnc3cc(Cl)c(Cl)cc32)n1 [Compound I-175] | A (No diseased area) |
| CCc1cc(C)nc(-n2c(C)nc3cc(Cl)ccc32)n1 [Compound I-1088] | A (No diseased area) |
| COc1nc(OC)nc(-n2c(C)nc3ccccc32)n1 [Compound I-45] | A (No diseased area) |
| COc1cc(OC)nc(-n2c(C(F)(F)F)nc3cc(C(F)(F)F)ccc32)n1 [Compound I-299] | A (No diseased area) |
| COc1nc(C)nc(-n2c(C(F)(F)F)nc3cc(C)ccc32)n1 [Compound I-762] | A (No diseased area) |
| COc1cc(OC)nc(-n2c(C)nc3cc(Cl)ccc32)n1 [Compound I-184] | A (No diseased area) |
| COc1ccc2c(c1)nc(Cl)n2-c1nc(OC)cc(OC)n1 [Compound I-260] | A (No diseased area) |
| CCOc1cc(OCC)nc(-n2c(S(C)(=O)=O)nc3cc(Cl)ccc32)n1 [Compound I-573] | B (Diseased area of less than 25%) |
| COc1nc(OC)nc(-n2c(N(C)C)nc3cc(Cl)ccc32)n1 [Compound I-376] | B (Diseased area of less than 25%) |
| COc1cc(OC)nc(-n2cnc3cc(OC(F)(F)F)ccc32)n1 [Compound I-91] | B (Diseased area of less than 25%) |
| COc1cc(OC)nc(-n2c(C#N)nc3ccccc32)n1 [Compound I-38] | B (Diseased area of less than 25%) |
| CCc1nc2ccccc2n1-c1nc(OC)cc(OC)n1 [Compound I-7] | A (No diseased area) |
| CCc1nc2cc(OC)ccc2n1-c1nc(OC)cc(OC)n1 [Compound I-336] | A (No diseased area) |
| COc1cc(OC)nc(-n2cnc3cc(C)c(C)cc32)n1 [Compound I-122] | B (Diseased area of less than 25%) |

| SMILES | Biological effectiveness |
| --- | --- |
| CCc1cc(C)nc(-n2c(C)nc3ccc(Cl)cc32)n1 [Compound I-1090] | B (Diseased area of less than 25%) |
| C=CCOc1cc(C)nc(-n2cnc3ccccc32)n1 [Compound I-883] | A (No diseased area) |
| COc1nc(OC)nc(-n2c(-c3ccccc3)nc3cc(Cl)ccc32)n1 [Compound I-378] | A (No diseased area) |
| COc1cc(OC)nc(-n2c(S(C)(=O)=O)nc3cc(Cl)ccc32)n1 [Compound I-423] | A (No diseased area) |
| COc1cc(OC)nc(-n2c(Br)nc3ccccc32)n1 [Compound I-3] | A (No diseased area) |
| CCc1cc(CC)nc(-n2c(C)nc3cc(C)ccc32)n1 [Compound I-1095] | A (No diseased area) |
| CCOc1nc(OCC)nc(-n2c(C(F)(F)F)nc3cc(OC)ccc32)n1 [Compound I-544] | A (No diseased area) |
| CCCOc1cc(C)nc(-n2cnc3cc(OC)ccc32)n1 [Compound I-805] | B (Diseased area of less than 25%) |
| COc1nc(C)nc(-n2c(Cl)nc3cc(C)ccc32)n1 [Compound I-758] | A (No diseased area) |
| Cc1cc(C#N)nc(-n2c(C)nc3ccccc32)n1 [Compound I-1147] | B (Diseased area of less than 25%) |
| CCOc1ccnc(-n2cnc3cc(C)ccc32)n1 [Compound I-693] | A (No diseased area) |
| CCOc1nc(OCC)nc(-n2c(C)nc3cc(Br)ccc32)n1 [Compound I-515] | A (No diseased area) |
| CCCOc1cc(C)nc(-n2c(Cl)nc3cc(OC)ccc32)n1 [Compound I-818] | B (Diseased area of less than 25%) |
| COc1nc(OC)nc(-n2cnc3ccccc32)n1 [Compound I-40] | B (Diseased area of less than 25%) |
| COc1cc(OC)nc(-n2c(C)nc3cc(C#N)ccc32)n1 [Compound I-199] | B (Diseased area of less than 25%) |
| CSc1nc(SC)nc(-n2c(C)nc3cc(Cl)ccc32)n1 [Compound I-1043] | A (No diseased area) |
| COc1cc(OC)nc(-n2c(C)nc3cc(F)ccc32)n1 [Compound I-183] | B (Diseased area of less than 25%) |
| CCOc1cc(C)nc(-n2c(Cl)nc3ccccc32)n1 [Compound I-771] | A (No diseased area) |
| COc1nc(OC)nc(-n2c(Cc3ccccc3)nc3cc(Cl)ccc32)n1 [Compound I-379] | A (No diseased area) |
| CSc1nc(SC)nc(-n2c(C(F)(F)F)nc3cc(Cl)ccc32)n1 [Compound I-1046] | A (No diseased area) |
| CCCc1nc2cc(Cl)ccc2n1-c1nc(OC)nc(OC)n1 [Compound I-358] | A (No diseased area) |
| CCc1cc(C)nc(-n2cnc3ccccc32)n1 [Compound I-1085] | A (No diseased area) |
| COc1cc(OC)nc(-n2c(Cl)nc3cc(F)ccc32)n1 [Compound I-255] | A (No diseased area) |
